We go through 5 compounds from US12559529B2, “NPY2 receptor agonists” (Boehringer Ingelheim International GmbH, priority 2019, dated 2026).

Structures are written as SMILES. *1 amine or outer side, *2 acyl side, *3 side chain or, on linkers, in order; H or OH if unused. Where a SMILES comes first, the peptide text is derived from it. Side-chain parts run from the residue outwards. The star is where a group is joined. C18 diacid = O=C(O)CCCCCCCCCCCCCCCCC(=O)*; γGlu = O=C(O)[C@H](CCC(=O)[*:2])N[*:1]; Isovaleryl = CC(C)CC(=O)*; AEEA = NCCOCCOCC(=O)O

In the assay the target is T1, Human Neuropeptide Y2 Receptor (Homo sapiens, UniProt P49146).
T1 construct: purchased CHEMICON HTS066M
T1 sequence (P49146 1-381): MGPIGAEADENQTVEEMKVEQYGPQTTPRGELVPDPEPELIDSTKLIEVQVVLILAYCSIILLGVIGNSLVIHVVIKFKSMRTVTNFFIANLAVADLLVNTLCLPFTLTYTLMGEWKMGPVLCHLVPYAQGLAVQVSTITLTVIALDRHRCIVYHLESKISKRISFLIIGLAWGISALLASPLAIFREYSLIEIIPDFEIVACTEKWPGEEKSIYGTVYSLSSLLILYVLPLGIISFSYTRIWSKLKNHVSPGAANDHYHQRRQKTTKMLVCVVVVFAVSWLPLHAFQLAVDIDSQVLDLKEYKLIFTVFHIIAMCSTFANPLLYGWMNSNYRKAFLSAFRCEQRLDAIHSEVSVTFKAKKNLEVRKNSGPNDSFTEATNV
The assay is described as follows: Radioligand binding competition assay (RLB). Conditions: Table 3; human 125I-PYY (1-36) 0.02 nM, Y2 receptor membranes; read-out: Ki. The essentials: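 Filtration format; Y2R membrane prep 0.5 μg/well; buffer 50 mM HEPES/5 mM MgCl2/1 mM CaCl2/0.2% ovalbumin pH 7.4; 2 h RT, shaking. Harvest on PEI-soaked GF/C, ice-cold HEPES/500 mM NaCl washes, scintillation count. IC50 by nonlinear fit.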

As a reminder, the Ki is a measure of affinity in units of concentration, obtained from inhibition or displacement. Consider `CC(C)CC(=O)N[C@@H](C)C(=O)N1CCC[C@H]1C(=O)N[C@@H](CCC(=O)O)C(=O)N[C@@H](CCCCNC(=O)COCCOCCNC(=O)COCCOCCNC(=O)CC[C@H](NC(=O)CCCCCCCCCCCCCCCCC(=O)O)C(=O)O)C(=O)N1CCC[C@H]1C(=O)N1CCC[C@H]1C(=O)N[C@@H](C)C(=O)N[C@@H](CC(=O)O)C(=O)N[C@@H](C)C(=O)N[C@@H](CO)C(=O)N1CCC[C@H]1C(=O)N[C@@H](CCC(=O)O)C(=O)N[C@@H](CCC(=O)O)C(=O)N[C@@H](CC(C)C)C(=O)N[C@@H](CCC(N)=O)C(=O)N[C@@H](CCCNC(=N)N)C(=O)N[C@@H](Cc1ccc(O)cc1)C(=O)N[C@@H](Cc1ccc(O)cc1)C(=O)N[C@H](C(=O)N[C@@H](CO)C(=O)N[C@@H](CC(C)C)C(=O)N[C@@H](CCCNC(=N)N)C(=O)N[C@@H](Cc1c[nH]cn1)C(=O)N[C@@H](Cc1ccc(O)cc1)C(=O)N[C@@H](Cc1ccc(O)cc1)C(=O)N[C@@H](CC(N)=O)C(=O)N[C@@H](Cc1c[nH]c2ccccc12)C(=O)N[C@@H](CC(C)C)C(=O)N[C@H](C(=O)N[C@@H](CCCNC(=N)N)C(=O)N[C@@H](CCC(N)=O)C(=O)N[C@@H](CCCNC(=N)N)C(=O)N[C@@H](Cc1ccc(O)cc1)C(N)=O)[C@@H](C)O)C(C)C` [Compound 47, N{alpha-4}-(3-methylbutanoyl)-N{epsilon-7}-[2-(2-{2-[2-(2-{2-[(4S)-4-carboxy-4-(17-carboxyheptadecanamido)butanamido]ethoxy}ethoxy)acetamido]ethoxy}ethoxy)acetamido]-[4A,7K,9P,10A,18Q,22V,28Y,30W,31L]hPYY (4-36)], for which the Ki turned out to be 0.42 nM.
With `CC(C)CC(=O)N[C@@H](C)C(=O)N1CCC[C@H]1C(=O)N[C@@H](CCC(=O)O)C(=O)N[C@@H](CCCCNC(=O)COCCOCCNC(=O)COCCOCCNC(=O)CC[C@H](NC(=O)CCCCCCCCCCCCCCCCC(=O)O)C(=O)O)C(=O)N1CCC[C@H]1C(=O)N[C@@H](CCC(=O)O)C(=O)N[C@@H](CCC(=O)O)C(=O)N[C@@H](CC(=O)O)C(=O)N[C@H](C(=O)N[C@@H](CCC(=O)O)C(=O)N1CCC[C@H]1C(=O)N[C@@H](CCC(=O)O)C(=O)N[C@@H](CCC(=O)O)C(=O)N[C@@H](CC(C)C)C(=O)N[C@@H](CCC(N)=O)C(=O)N[C@@H](CCCNC(=N)N)C(=O)N[C@@H](Cc1ccc(O)cc1)C(=O)N[C@@H](Cc1ccc(O)cc1)C(=O)N[C@H](C(=O)N[C@@H](CO)C(=O)N[C@@H](CC(C)C)C(=O)N[C@@H](CCCNC(=N)N)C(=O)N[C@@H](Cc1c[nH]cn1)C(=O)N[C@@H](Cc1ccc(O)cc1)C(=O)N[C@@H](Cc1ccc(O)cc1)C(=O)N[C@@H](CC(N)=O)C(=O)N[C@@H](Cc1c[nH]c2ccccc12)C(=O)N[C@@H](CC(C)C)C(=O)N[C@H](C(=O)N[C@@H](CCCNC(=N)N)C(=O)N[C@@H](CCC(N)=O)C(=O)N[C@@H](CCCNC(=N)N)C(=O)N[C@@H](Cc1ccc(O)cc1)C(N)=O)[C@@H](C)O)C(C)C)[C@@H](C)O` [Compound 48, N{alpha-4}-(3-methylbutanoyl)-N{epsilon-7}-[2-(2-{2-[2-(2-{2-[(4S)-4-carboxy-4-(17-carboxyheptadecanamido)butanamido]ethoxy}ethoxy)acetamido]ethoxy}ethoxy)acetamido]-[4A,7K,9E,12T,13E,18Q,22V,28Y,30W,31L]hPYY (4-36)], the Ki came to 38.9 nM.
Consider `CC(C)CC(=O)N[C@@H](C)C(=O)N1CCC[C@H]1C(=O)N[C@@H](CCC(=O)O)C(=O)N[C@@H](CCCCNC(=O)COCCOCCNC(=O)COCCOCCNC(=O)CC[C@H](NC(=O)CCCCCCCCCCCCCCCCC(=O)O)C(=O)O)C(=O)N[C@@H](C)C(=O)N[C@@H](CCC(=O)O)C(=O)N[C@@H](CCC(=O)O)C(=O)N[C@@H](CCC(=O)O)C(=O)N[C@@H](C)C(=O)N[C@@H](CO)C(=O)N1CCC[C@H]1C(=O)N[C@@H](CCC(=O)O)C(=O)N[C@@H](CCC(=O)O)C(=O)N[C@@H](CC(C)C)C(=O)N[C@@H](CCC(N)=O)C(=O)N[C@@H](CCCNC(=N)N)C(=O)N[C@@H](Cc1ccc(O)cc1)C(=O)N[C@@H](Cc1ccc(O)cc1)C(=O)N[C@H](C(=O)N[C@@H](CO)C(=O)N[C@@H](CC(C)C)C(=O)N[C@@H](CCCNC(=N)N)C(=O)N[C@@H](Cc1c[nH]cn1)C(=O)N[C@@H](Cc1ccc(O)cc1)C(=O)N[C@@H](Cc1ccc(O)cc1)C(=O)N[C@@H](CC(N)=O)C(=O)N[C@@H](Cc1c[nH]c2ccccc12)C(=O)N[C@@H](CC(C)C)C(=O)N[C@H](C(=O)N[C@@H](CCCNC(=N)N)C(=O)N[C@@H](CCC(N)=O)C(=O)N[C@@H](CCCNC(=N)N)C(=O)N[C@@H](Cc1ccc(O)cc1)C(N)=O)[C@@H](C)O)C(C)C` [Compound 51, N{alpha-4}-(3-methylbutanoyl)-N{epsilon-7}-[2-(2-{2-[2-(2-{2-[(4S)-4-carboxy-4-(17-carboxyheptadecanamido)butanamido]ethoxy}ethoxy)acetamido]ethoxy}ethoxy)acetamido]-[4A,7K,8A,9E,11E,18Q,22V,28Y,30W,31L]hPYY (4-36)] (Isovaleryl-APEK([AEEA-AEEA-γGlu-C18 diacid])AEEEASPEELQRYYVSLRHYYNWLTRQRY-NH2), for which the Ki came out at 39.4 nM.
Consider `CC(C)CC(=O)N[C@@H](C)C(=O)N1CCC[C@H]1C(=O)N[C@@H](CCC(=O)O)C(=O)N[C@@H](CCCCNC(=O)COCCOCCNC(=O)COCCOCCNC(=O)CC[C@H](NC(=O)CCCCCCCCCCCCCCCCC(=O)O)C(=O)O)C(=O)N[C@@H](C)C(=O)N[C@@H](CCC(=O)O)C(=O)N[C@@H](CCC(=O)O)C(=O)N[C@@H](CC(=O)O)C(=O)N[C@@H](C)C(=O)N[C@@H](CO)C(=O)N[C@@H](CCC(=O)O)C(=O)N[C@@H](CCC(=O)O)C(=O)N[C@@H](CCC(=O)O)C(=O)N[C@@H](CC(C)C)C(=O)N[C@@H](CCC(N)=O)C(=O)N[C@@H](CCCNC(=N)N)C(=O)N[C@@H](Cc1ccc(O)cc1)C(=O)N[C@@H](Cc1ccc(O)cc1)C(=O)N[C@H](C(=O)N[C@@H](CO)C(=O)N[C@@H](CC(C)C)C(=O)N[C@@H](CCCNC(=N)N)C(=O)N[C@@H](Cc1c[nH]cn1)C(=O)N[C@@H](Cc1ccc(O)cc1)C(=O)N[C@@H](Cc1ccc(O)cc1)C(=O)N[C@@H](CC(N)=O)C(=O)N[C@@H](Cc1c[nH]c2ccccc12)C(=O)N[C@@H](CC(C)C)C(=O)N[C@H](C(=O)N[C@@H](CCCNC(=N)N)C(=O)N[C@@H](CCC(N)=O)C(=O)N[C@@H](CCCNC(=N)N)C(=O)N[C@@H](Cc1ccc(O)cc1)C(N)=O)[C@@H](C)O)C(C)C` [Compound 52, N{alpha-4}-(3-methylbutanoyl)-N{epsilon-7}-[2-(2-{2-[2-(2-{2-[(4S)-4-carboxy-4-(17-carboxyheptadecanamido)butanamido]ethoxy}ethoxy)acetamido]ethoxy}ethoxy)acetamido]-[4A,7K,8A,9E,14E,18Q,22V,28Y,30W,31L]hPYY (4-36)], for which the Ki came to 8.53 nM.
For the compound `CC(C)CC(=O)N[C@@H](C)C(=O)N1CCC[C@H]1C(=O)N[C@@H](CCC(=O)O)C(=O)N[C@@H](CCCCNC(=O)COCCOCCNC(=O)COCCOCCNC(=O)CC[C@H](NC(=O)CCCCCCCCCCCCCCCCC(=O)O)C(=O)O)C(=O)N1CCC[C@H]1C(=O)N[C@@H](CCC(=O)O)C(=O)N[C@@H](CCC(=O)O)C(=O)N[C@@H](CC(=O)O)C(=O)N[C@@H](C)C(=O)N[C@@H](CO)C(=O)N1CCC[C@H]1C(=O)N[C@@H](CCC(=O)O)C(=O)N[C@@H](CCC(=O)O)C(=O)N[C@@H](C)C(=O)N[C@@H](CCC(N)=O)C(=O)N[C@@H](CCCNC(=N)N)C(=O)N[C@@H](Cc1ccc(O)cc1)C(=O)N[C@@H](Cc1ccc(O)cc1)C(=O)N[C@H](C(=O)N[C@@H](CO)C(=O)N[C@@H](CC(C)C)C(=O)N[C@@H](CCCNC(=N)N)C(=O)N[C@@H](Cc1c[nH]cn1)C(=O)N[C@@H](Cc1ccc(O)cc1)C(=O)N[C@@H](Cc1ccc(O)cc1)C(=O)N[C@@H](CC(N)=O)C(=O)N[C@@H](Cc1c[nH]c2ccccc12)C(=O)N[C@@H](CC(C)C)C(=O)N[C@H](C(=O)N[C@@H](CCCNC(=N)N)C(=O)N[C@@H](CCC(N)=O)C(=O)N[C@@H](CCCNC(=N)N)C(=O)N[C@@H](Cc1ccc(O)cc1)C(N)=O)[C@@H](C)O)C(C)C` [Compound 55, N{alpha-4}-(3-methylbutanoyl)-N{epsilon-7}-[2-(2-{2-[2-(2-{2-[(4S)-4-carboxy-4-(17-carboxyheptadecanamido)butanamido]ethoxy}ethoxy)acetamido]ethoxy}ethoxy)acetamido]-[4A,7K,9E,17A,18Q,22V,28Y,30W,31L]hPYY (4-36)], the Ki is 3.35 nM.
